According to ChEMBL document CHEMBL1151155, “Effect of magnesium lithospermate B on urinary prostaglandins in rats with renal failure” (1990):
Calls of active or inactive are those of the source. No cut-off for these calls is given here.

Assays:
[1] = tested on: Rattus norvegicus; test: Effect on urinary excretion of prostaglandin in adenine rich diet fed LWH:Wistar rat assessed as urine prostaglandin E2 level per 24 hrs at […], ip administered from day 7 to day 12 of adenine ingestion; format: functional
[2] = tested on: Rattus norvegicus; test: Effect on urinary excretion of prostaglandin in adenine rich diet fed LWH:Wistar rat assessed as urine 6-keto-PGF1-alpha level per 24 hrs at […], ip administered from day 7 to day 12 of adenine ingestion; format: functional
[3] = tested on: Rattus norvegicus; test: Effect on urinary excretion of prostaglandin in adenine rich diet fed LWH:Wistar rat assessed as urine TXB2 level per 24 hrs at […], ip administered from day 7 to day 12 of adenine ingestion; format: functional
[4] = tested on: Rattus norvegicus; test: Decrease in urinary excretion of thromboxane B2 in adenine rich diet fed LWH:Wistar rat at […], ip administered from day 7 to day 12 of adenine ingestion; format: functional, Urine; set-up: scale not given: the % may be the effect or the level left
[5] = tested on: Rattus norvegicus; test: Protection against renal failure in adenine rich diet fed LWH:Wistar rat up to […], ip administered once daily from day 7 to day 12 of adenine ingestion; format: functional, organism-based
[6] = tested on: Rattus norvegicus; test: Increase in urinary excretion of prostaglandin E2 in adenine rich diet fed LWH:Wistar rat at […], ip administered from day 7 to day 12 of adenine ingestion; format: functional, organism-based; conditions: Urine

Compound: O=C(/C=C/c1ccc(O)c2c1[C@H](C(=O)O[C@H](Cc1ccc(O)c(O)c1)C(=O)[O-])[C@@H](c1ccc(O)c(O)c1)O2)O[C@H](Cc1ccc(O)c(O)c1)C(=O)[O-].[Mg+2] [MAGNESIUM LITHOSPERMATE B]
- Activity [1]: 72.5 ng
- Activity [2]: 20.7 ng
- Activity [3]: 23.3 ng
- Activity [4]: 36%
- Activity [5]: Active
- Activity [6]: Active
